System: COR L88 complex tumor spheroid viability
Assay: Anticancer human tumor COR L88 cell line growth inhibition;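 note: compound exposure lasted 7 days before viability readout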;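 for viability, T/C: percent of DMSO vehicle-treated spheroids = 100%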
Details: for IC50: curve of first compound; for viability, T/C: stronger effect = lower value; active = viability on the fitted dose curve at most 10% of control; inactive = the rest
Text: Multicellular complex tumor spheroid response to DNA repair inhibitors in combination with DNA-damaging drugs
This study explores the anticancer activities of DNA-damaging drugs and inhibitors of DNA damage repair, both as single agents and in combinations. Complex tumor spheroids comprised of malignant cells, endothelial cells and mesenchymal stem cells served as an in vitro model for human solid tumors. This model system incorporates physiologically relevant features and patient-derived or established malignant cell lines with clinically relevant genetic alterations from many tumor types. Twenty-six patient-derived or established malignant cell lines were evaluated representing sarcoma, melanoma, small cell lung cancer (SCLC), non-small cell lung cancer (NSCLC), as well as bladder, ovarian and pancreatic cancers. The concentration ranges selected for each drug and investigational agent were based upon clinically achievable concentrations if the clinical Cmax of the agent was known.
Compounds. The drugs and compounds olaparib (NSC753686), talazoparib (NSC767125), berzosertib (NSC777718), elimusertib (NSC800525), nedisertib (NSC802822), VX-984 (NSC792969), AZD-1390 (NSC803789), temozolomide (NSC362856), topotecan (NSC609699), trabectedin (NSC813783), staurosporine (NSC755774), and gemcitabine (NSC613327) were obtained from the National Cancer Institute (NCI) Developmental Therapeutics Program Chemical Repository. The FDA-approved anticancer drug set is available from the Developmental Therapeutics Program at https://dtp.cancer.gov/organization/dscb/obtaining/available_plates.htm. […] The stock solutions were prepared in dimethyl sulfoxide (DMSO, Sigma-Aldrich, St. Louis, MO, cat. D2650) at 400-fold the tested concentration and stored at -70 degrees C. Prior to their use, the stock solutions were diluted in fresh medium and the final DMSO concentration in the assay was 0.25% (v/v). All drugs and investigational agents were tested over a range starting from a high concentration at or near the clinical Cmax and decreasing in half-log increments. If the clinical Cmax for an agent had not been determined, the highest concentration tested was 10 microM.
Cell Lines. The patient-derived cancer cell (PDC) lines: 156681-154-R-J1-PDC, 283228-195-R-J1-PDC, 287954-098-R-J1-PDC, 292921-168-R-J2-PDC, 349418-098-R-PDC, 425362-245-T-J1-PDC, 556581-035-R-J1-PDC, and BL0293-F563-PDC were received from the NCI Patient-Derived Models Repository (PDMR, https://pdmr.cancer.gov). The established cell lines HS-SY-2 (RRID:CVCL_8719), MPNST, and SYO-1 (RRID:CVCL_7146) were obtained from the Sloan Kettering Institute. The alveolar soft parts sarcoma cell line ASPS-1 (RRID:CVCL_S738) was established at the NCI and grown from internal seed stocks. The following established cell lines were purchased from the American Type Culture Collection (ATCC, Manassas, VA): G-401 (ATCC, cat. CRL-1441, RRID:CVCL_0270), SW982 (ATCC, cat. HTB-93, RRID:CVCL_1734), VA-ES-BJ (ATCC, cat. CRL-2138, RRID:CVCL_1785), NCI-H719 (ATCC, cat. CRL-5837, RRID:CVCL_1582), NCI-H196 (ATCC, cat. CRL-5823, RRID:CVCL_1509), NCI-H841 (ATCC, cat. CRL-5845, RRID:CVCL_1595), NCI-H1618 (ATCC, cat. CRL-5879, RRID:CVCL_1480), NCI-H1876 (ATCC, cat. CRL-5902, RRID:CVCL_1503), DMS 114 (ATCC, cat. CRL-2066; RRID:CVCL_1174), NCI-H211 (ATCC, cat. CRL-5824; RRID:CVCL_1529), and SW 1271 (ATCC, cat. CRL-2177, RRID:CVCL_1716). The small cell lung cancer cell line COR-L88 was purchased from Sigma-Aldrich (cat. 92031917-1VL, RRID:CVCL_1141). The non-small cell lung cancer cell lines NCI-H226 (RRID:CVCL_1544) and NCI-H322M (RRID:CVCL_1557) were established at the NCI and grown from internal seed stocks. Pooled donor human umbilical vein endothelial cells (HUVEC, Lonza, cat. CC-2519) and human mesenchymal stem cells (hMSC, Lonza, cat. PT-2501) were purchased from Lonza (Walkersville, MD).
Cell Culture. All cells were maintained in an incubator at 37 degrees C and 5% CO2 with 95% humidity. […]

O=C(c1cc(Cc2n[nH]c(=O)c3ccccc23)ccc1F)N1CCN(C(=O)C2CC2)CC1 + Cn1nnc2c(C(N)=O)ncn2c1=O
3.7 µM: IC50 (second compound 31.6 µM)
0.263 µM: IC50 (second compound 100 µM)
9.36 µM: IC50 (second compound 10 µM)
20.9 µM: IC50 (second compound 3.16 µM)
inactive: viability, T/C (second compound 1 µM, first compound 0.0949 µM) 92.8% | viability, T/C (second compound 1 µM, first compound 0.3 µM) 92.8% | viability, T/C (second compound 1 µM, first compound 0.949 µM) 97.3% | viability, T/C (second compound 1 µM, first compound 3 µM) 78.4% | viability, T/C (second compound 1 µM, first compound 9.49 µM) 61% | viability, T/C (second compound 1 µM, first compound 30 µM) 45.4% | viability, T/C (second compound 3.16 µM, first compound 0.0949 µM) 102% | viability, T/C (second compound 3.16 µM, first compound 0.3 µM) 93.6% | viability, T/C (second compound 3.16 µM, first compound 0.949 µM) 91.8% | viability, T/C (second compound 3.16 µM, first compound 3 µM) 86.5% | viability, T/C (second compound 3.16 µM, first compound 9.49 µM) 54.7% | viability, T/C (second compound 3.16 µM, first compound 30 µM) 47.9% | viability, T/C (second compound 10 µM, first compound 0.0949 µM) 72.6% | viability, T/C (second compound 10 µM, first compound 0.3 µM) 83.1% | viability, T/C (second compound 10 µM, first compound 0.949 µM) 75.5% | viability, T/C (second compound 10 µM, first compound 3 µM) 64.2% | viability, T/C (second compound 10 µM, first compound 9.49 µM) 50.6% | viability, T/C (second compound 10 µM, first compound 30 µM) 45.1% | viability, T/C (second compound 31.6 µM, first compound 0.0949 µM) 61.8% | viability, T/C (second compound 31.6 µM, first compound 0.3 µM) 58.1% | viability, T/C (second compound 31.6 µM, first compound 0.949 µM) 57.5% | viability, T/C (second compound 31.6 µM, first compound 3 µM) 49.5% | viability, T/C (second compound 31.6 µM, first compound 9.49 µM) 45.5% | viability, T/C (second compound 31.6 µM, first compound 30 µM) 41.2% | viability, T/C (second compound 100 µM, first compound 0.0949 µM) 53.9% | viability, T/C (second compound 100 µM, first compound 0.3 µM) 48.4% | viability, T/C (second compound 100 µM, first compound 0.949 µM) 46.5% | viability, T/C (second compound 100 µM, first compound 3 µM) 43.7% | viability, T/C (second compound 100 µM, first compound 9.49 µM) 39% | viability, T/C (second compound 100 µM, first compound 30 µM) 37%
21.3 µM: IC50 (second compound 1 µM)
